According to patent US20150119349A1, “NEW ANTIFUNGAL COMPOSITIONS” (DSM IP ASSETS B.V., priority 2012, published 2015):

Tests used:
Assay type in all cases: in vivo
[1] = system: Penicillium italicum; assay: Treatment of oranges inoculated with Penicillium italicum, natamycin/ferbam (Example 7); details: 20° C., 600 ppm ferbam
Procedure: (§1) Ten fresh, organic oranges were used per treatment. Each orange was soaked in a 180 ppm hypochlorite solution for 10 minutes, then rinsed thoroughly with fresh tap water and dried. The peel of each disinfected orange was wounded once using a cork borer according to the method described by de Lapeyre de Bellaire and Dubois (1987). Subsequently, each wound was inoculated with 10 μl of a Penicillium italicum suspension containing 1×10^5 of spores/ml. After incubation for 3 hours at 20° C., each wound and the orange peel area of 1 cm around the wound was treated with in total 150 μl of a freshly prepared aqueous antifungal composition comprising either 500 ppm natamycin (DSM Food Specialties, Delft, The Netherlands), 500 ppm propineb or both. Each antifungal composition also comprised 3.2% (w/w) beeswax, 0.8% (w/w) glycerol, 0.7% (w/w) polyoxyethylene sorbitan monostearate (Tween 60), 0.2% (w/w) polyoxyethylene sorbitan monooleate (Tween 80), 0.05% (w/w) methylhydroxyethyl-cellulose (MHEC), 0.03% (w/w) anti-foaming agent, 0.02% (w/w) xanthan gum, 0.02% (w/w) citric acid, 0.01% (w/w) lactic acid and 0.01% potassium sorbate. A composition without natamycin or propineb was used as control.
(§2) The treated oranges were incubated in a closed box in the dark at 20° C. and assessed on mould growth during a 17-day incubation period. The antifungal activity (in %) of the individual and combined active ingredients was determined by calculating the reduction in mould growth observed on the oranges treated with the antifungal composition in comparison to the mould growth on the oranges treated with the control composition according to the Colby method (Colby, 1967) described in Example 5.
The experiment was conducted as described in Example 6, except for the fact that each wounded and inoculated orange was treated with 150 μl of a freshly prepared aqueous antifungal composition comprising either 500 ppm natamycin (DSM Food Specialties, Delft, The Netherlands), 600 ppm ferbam or both. During the 17-day incubation period, the treated oranges were assessed on mould growth according to the method described in Example 6.

[2] = system: Botrytis cinerea; assay: Treatment of sweet peppers inoculated with Botrytis cinerea (Example 8); details: 20° C., 200 ppm propineb
Procedure: Ten fresh, organic sweet peppers were used per treatment. Each sweet pepper was soaked in a 180 ppm hypochlorite solution for 10 minutes, then rinsed thoroughly with fresh tap water and dried. The peel of each disinfected sweet pepper was wounded once using a cork borer according to the method described by de Lapeyre de Bellaire and Dubois (1987). Subsequently, each wound was inoculated with 10 μl of a Botrytis cinerea suspension containing 1×10^5 of spores/ml. After incubation for 3 hours at 20° C., each wound and the skin area of 0.5 cm around the wound was treated with in total 75 μl of a freshly prepared aqueous antifungal composition comprising either 200 ppm natamycin (DSM Food Specialties, Delft, The Netherlands), 200 ppm propineb or both. Each antifungal composition also comprised 3.2% (w/w) beeswax, 0.8% (w/w) glycerol, 0.7% (w/w) polyoxyethylene sorbitan monostearate (Tween 60), 0.2% (w/w) polyoxyethylene sorbitan monooleate (Tween 80), 0.05% (w/w) methylhydroxyethyl-cellulose (MHEC), 0.03% (w/w) anti-foaming agent, 0.02% (w/w) xanthan gum, 0.02% (w/w) citric acid, 0.01% (w/w) lactic acid and 0.01% potassium sorbate. A composition without natamycin or propineb was used as control.
as §2, with “sweet peppers” for “oranges”, “27-day” for “17-day”

[3] = system: Botrytis cinerea; assay: Treatment of strawberries inoculated with Botrytis cinerea (Example 5); details: 500 ppm natamycin, 600 ppm propineb; for Number of moulded strawberries/total number of 12 strawberries / Observed antifungal activity O: 20° C., strawberries
Procedure: Twelve fresh, organic strawberries were used per treatment. Each strawberry was wounded with a 0.5 mm long cut and each wound was inoculated with 10 μl of a Botrytis cinerea suspension containing 1×10^5 of spores/ml. After a 3-hour incubation period at 20° C., each strawberry was dipped individually for 1 minute in a freshly prepared aqueous antifungal composition comprising either 500 ppm natamycin (DSM Food Specialties, Delft, The Netherlands), 600 ppm propineb or both. Each antifungal composition also comprised 3.2% (w/w) beeswax, 0.8% (w/w) glycerol, 0.7% (w/w) polyoxyethylene sorbitan monostearate (Tween 60), 0.1% (w/w) polyoxyethylene sorbitan monooleate (Tween 80), 0.05% (w/w) methylhydroxyethyl-cellulose (MH EC), 0.03% (w/w) anti-foaming agent, 0.02% (w/w) xanthan gum, 0.02% (w/w) citric acid, 0.01% (w/w) lactic acid and 0.01% potassium sorbate. A composition without natamycin or propineb was used as control. […] The treated strawberries were incubated in a closed box in the dark at 20° C. for 9 days.
During incubation, mould growth on the strawberries was assessed in a twofold manner: (i) the number of moulded strawberries per total of 12 strawberries was counted; and (ii) the antifungal activity (in %) of the individual and combined active ingredients was determined by calculating the reduction in mould growth observed on the strawberries treated with the antifungal composition in comparison to the mould growth on the strawberries treated with the control composition. The expected antifungal activity (E in %) of the combined antifungal composition comprising both active ingredients was calculated according to the Colby equation (Colby, 1967): […]
wherein X and Y are the observed antifungal activities (in %) of the individual active ingredients X and Y, respectively.

[4] = system: Penicillium italicum; assay: Treatment of oranges inoculated with Penicillium italicum, natamycin/propineb (Example 6); details: 20° C., 500 ppm propineb
Procedure: as §1, §2

[5] = incubation day 7, 500 ppm natamycin
[6] = incubation day 8, 500 ppm natamycin
[7] = incubation day 9, 500 ppm natamycin
[8] = incubation day 10, 500 ppm natamycin
[9] = incubation day 11, 500 ppm natamycin
[10] = incubation day 12, 500 ppm natamycin
[11] = incubation day 13, 500 ppm natamycin
[12] = incubation day 14, 500 ppm natamycin
[13] = incubation day 15, 500 ppm natamycin
[14] = incubation day 17, 500 ppm natamycin
[15] = incubation day 11, 200 ppm natamycin
[16] = incubation day 12, 200 ppm natamycin
[17] = incubation day 13, 200 ppm natamycin
[18] = incubation day 15, 200 ppm natamycin
[19] = incubation day 18, 200 ppm natamycin
[20] = incubation day 24, 200 ppm natamycin
[21] = incubation days 20-22, 200 ppm natamycin
[22] = incubation days 25-27, 200 ppm natamycin

| Compound | Observed antifungal activity O [1, 5] [%] | Observed antifungal activity O [1, 6] [%] | Observed antifungal activity O [1, 7] [%] | Observed antifungal activity O [1, 8] [%] | Observed antifungal activity O [1, 9] [%] | Observed antifungal activity O [1, 10] [%] | Observed antifungal activity O [1, 11] [%] | Observed antifungal activity O [1, 12] [%] | Observed antifungal activity O [1, 13] [%] | Observed antifungal activity O [1, 14] [%] | Observed antifungal activity O [2, 15] [%] | Observed antifungal activity O [2, 16] [%] | Observed antifungal activity O [2, 17] [%] | Observed antifungal activity O [2, 18] [%] | Observed antifungal activity O [2, 19] [%] | Observed antifungal activity O [2, 20] [%] | Observed antifungal activity O [2, 21] [%] | Observed antifungal activity O [2, 22] [%] | Number of moulded strawberries/total number of 12 strawberries ([3]; Day 5) | Number of moulded strawberries/total number of 12 strawberries ([3]; Day 6-9) | also measured |
| --- | --- | --- | --- | --- | --- | --- | --- | --- | --- | --- | --- | --- | --- | --- | --- | --- | --- | --- | --- | --- | --- |
| CN(C)C(=S)[S-].CN(C)C(=S)[S-].CN(C)C(=S)[S-].[Fe+3] [Ferbam, ferbam] | 20 | 24 | 20 | 7 | 13 | 6 | 6 | 6 | 6 | 5 |  |  |  |  |  |  |  |  |  |  |  |
| C[C@@H]1C/C=C/C=C/C=C/C=C/[C@H](O[C@@H]2O[C@H](C)[C@@H](O)[C@H](N)[C@@H]2O)C[C@@H]2O[C@](O)(C[C@@H](O)C[C@H]3O[C@@H]3/C=C/C(=O)O1)C[C@H](O)[C@H]2C(=O)O [Natamycin, natamycin] | 89 | 86 | 64 | 54 | 41 | 36 | 38 | 32 | 24 | 21 | 84 | 80 | 79 | 78 | 75 | 59 | 71 | 57 | 11/12 | 12/12 | Observed antifungal activity O ([3]; incubation day 4): 33%; Observed antifungal activity O ([3]; incubation day 5): 16%; Observed antifungal activity O ([3]; incubation day 6): 5.3%; Observed antifungal activity O ([3]; incubation day 7): 11%; Observed antifungal activity O ([3]; incubation day 8): 14%; Observed antifungal activity O ([3]; incubation day 9): 4.8%; Observed antifungal activity O [4, 8]: 54%; Observed antifungal activity O [4, 9]: 41%; Observed antifungal activity O [4, 10]: 36%; Observed antifungal activity O [4, 11]: 38%; Observed antifungal activity O [4, 12]: 32%; Observed antifungal activity O [4, 13]: 24%; Observed antifungal activity O [4, 14]: 21% |
| propineb |  |  |  |  |  |  |  |  |  |  | 0 | 0 | 0 | 0 | 0 | 0 | 0 | 0 | 12/12 | 12/12 | Number of the 12 strawberries that showed mould growth ([3]; after 5 through 9 days of incubation): 12; Observed antifungal activity O ([3]; incubation day 4): 0%; Observed antifungal activity O ([3]; incubation day 5): 0%; Observed antifungal activity O ([3]; incubation day 6): 0%; Observed antifungal activity O ([3]; incubation day 7): 0%; Observed antifungal activity O ([3]; incubation day 8): 0%; Observed antifungal activity O ([3]; incubation day 9): 0%; Observed antifungal activity O [4, 8]: 0%; Observed antifungal activity O [4, 9]: 0%; Observed antifungal activity O [4, 10]: 0%; Observed antifungal activity O [4, 11]: 0%; Observed antifungal activity O [4, 12]: 0%; Observed antifungal activity O [4, 13]: 0%; Observed antifungal activity O [4, 14]: 0% |
